The first test deals with T1, human LPA1 (Homo sapiens, UniProt Q92633).
T1 construct: expressed in transfected cells; host or cells: Chinese hamster ovary (CHO) cells
T1 sequence (Q92633 whole entry): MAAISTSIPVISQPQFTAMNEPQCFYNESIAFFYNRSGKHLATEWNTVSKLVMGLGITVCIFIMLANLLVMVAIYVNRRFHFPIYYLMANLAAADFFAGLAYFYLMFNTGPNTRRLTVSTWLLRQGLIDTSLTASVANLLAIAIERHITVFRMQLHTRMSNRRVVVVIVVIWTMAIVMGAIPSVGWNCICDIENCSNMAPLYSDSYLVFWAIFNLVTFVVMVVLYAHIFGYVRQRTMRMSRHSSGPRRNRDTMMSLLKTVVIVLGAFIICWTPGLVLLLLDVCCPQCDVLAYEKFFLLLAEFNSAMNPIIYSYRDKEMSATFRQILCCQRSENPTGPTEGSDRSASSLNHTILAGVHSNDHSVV
The test is described as follows: LPA1 functional antagonist assay (LPA-induced calcium flux in CHO cells overexpressing human LPA1). The class given is cell-based. The conditions noted are these: inhibition of calcium flux induced by 10 nM LPA, CHO cells overexpressing human LPA1; read-out: hLPA1 IC50. The gist of the method:
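Calcium flux was triggered by 10 nM LPA after 20 min room-temperature compound pre-incubation (final 0.08 nM to 5 μM, 0.5% DMSO) in human LPA1-overexpressing CHO cells carrying calcium dye. Buffer: HBSS with Ca/Mg, 20 mM HEPES, 0.1% fatty-acid-free BSA; IC50s from 4-parameter logistic fits.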
A general note: Calcium assays in cells follow changes in intracellular calcium, usually with a dye or a luminescent sensor.
As a reminder, the IC50 is the point on the concentration scale where inhibition reaches its midpoint. As to `Cc1nc(-c2nnn(C)c2Cn2nnc(OC3CCCC3)n2)ccc1O[C@H]1CCC[C@@H](C(=O)O)C1` [Example 337, (1R,3S)-3-{[6-(5-{[5-(cyclopentyloxy)-2H-1,2,3,4-tetrazol-2-yl]methyl}-1-methyl-1H-1,2,3-triazol-4-yl)-2-methylpyridin-3-yl]oxy}cyclohexane-1-carboxylic acid], the IC50 is 546 nM.

For `Cc1nc(-c2nnn(C)c2Cn2nnc(OCC3CC(F)(F)C3)n2)ccc1O[C@H]1CCC[C@H](C(=O)O)C1` [Example 338], the IC50 is 43 nM.

`Cc1nc(-c2nnn(C)c2Cn2nnc(OCC3CC3)n2)ccc1O[C@H]1CCC[C@@H](C(=O)O)C1` [Example 339, (1R,3S)-3-{[6-(5-{[5-(cyclopropyl-methoxy)-2H-1,2,3,4-tetrazol-2-yl]methyl}-1-methyl-1H-1,2,3-triazol-4-yl)-2-methylpyridin-3-yl]oxy}cyclohexane-1-carboxylic acid]: the IC50 is 192 nM.

Regarding `CCCOc1nnn(Cc2c(-c3ccc(O[C@H]4CCC[C@H](C(=O)O)C4)c(C)n3)nnn2C)n1` [Example 340], the IC50 is 97 nM.

As for `Cc1nc(-c2nnn(C)c2Cn2nnc(OC3CC3)n2)ccc1O[C@H]1CCC[C@@H](C(=O)O)C1` [Example 341, (3S)-3-[(6-{5-[(5-cyclopropoxy-2H-1,2,3,4-tetrazol-2-yl)methyl]-1-methyl-1H-1,2,3-triazol-4-yl}-2-methylpyridin-3-yl)oxy]cyclo-hexane-1-carboxylic acid], the IC50 was determined as 81 nM.

For the molecule `Cc1nc(-c2nnn(C)c2Cn2nnc(OCc3ccccc3)n2)ccc1O[C@H]1CCC[C@H](C(=O)O)C1` [Example 342, (1S,3S)-3-{[6-(5-{[5-(benzyloxy)-2H-1,2,3,4-tetrazol-2-yl]methyl}-1-methyl-1H-1,2,3-triazol-4-yl)-2-methylpyridin-3-yl]oxy}cyclo-hexane-1-carboxylic acid], the IC50 was 11 nM.

As to `Cc1nc(-c2nnn(C)c2Cn2nnc(S(C)(=O)=O)n2)ccc1O[C@H]1CCC[C@H](C(=O)O)C1` [Example 343, (1S,3S)-3-[(6-{5-[(5-methane-sulfonyl-2H-1,2,3,4-tetrazol-2-yl)methyl]-1-methyl-1H-1,2,3-triazol-4-yl}-2-methylpyridin-3-yl)oxy]cyclohexane-1-carboxylic acid], the IC50 was 1100 nM.

Regarding `Cc1nc(-c2nnn(C)c2Cn2nnc(OCC(C)C)n2)ccc1O[C@H]1CCC[C@H](C(=O)O)C1` [Example 344, (1S,3S)-3-{[2-methyl-6-(1-methyl-5-{[5-(2-methylpropoxy)-2H-1,2,3,4-tetrazol-2-yl]methyl}-1H-1,2,3-triazol-4-yl)pyridin-3-yl]oxy}cyclohexane-1-carboxylic acid], the IC50 was determined as 25 nM.

As to `CCCCOc1nnn(Cc2c(-c3ccc(O[C@H]4CCC[C@H](C(=O)O)C4)c(C)n3)nnn2C)n1` [Example 345, (1S,3S)-3-[(6-{5-[(5-butoxy-2H-1,2,3,4-tetrazol-2-yl)methyl]-1-methyl-1H-1,2,3-triazol-4-yl}-2-methylpyridin-3-yl)oxy]cyclo-hexane-1-carboxylic acid], the IC50 came out at 32 nM.

As to `Cc1nc(-c2nnn(C)c2Cn2nnc(OC(C)C)n2)ccc1O[C@H]1CCC[C@H](C(=O)O)C1` [Example 346, (1S,3S)-3-{[2-methyl-6-(1-methyl-5-{[5-(propan-2-yloxy)-2H-1,2,3,4-tetrazol-2-yl]methyl}-1H-1,2,3-triazol-4-yl)pyridin-3-yl]oxy}cyclohexane-1-carboxylic acid], the IC50 was determined as 49 nM.

Regarding `CCCOc1nnn(Cc2c(-c3ccc(O[C@H]4CCC[C@@H](C(=O)O)C4)c(C)n3)nnn2C)n1` [Example 347, (1R,3S)-3-[(2-methyl-6-{1-methyl-5-[(5-propoxy-2H-1,2,3,4-tetrazol-2-yl)methyl]-1H-1,2,3-triazol-4-yl}pyridin-3-yl)oxy]cyclohexane-1-carboxylic acid], the IC50 amounted to 270 nM.

On to `Cc1nc(-c2nnn(C)c2Cn2nnc(OCC3CC3)n2)ccc1O[C@H]1CCC[C@H](C(=O)O)C1` [Example 348, (1S,3S)-3-{[6-(5-{[5-(cyclopropyl-methoxy)-2H-1,2,3,4-tetrazol-2-yl]methyl}-1-methyl-1H-1,2,3-triazol-4-yl)-2-methylpyridin-3-yl]oxy}cyclohexane-1-carboxylic acid], for which the IC50 is 26 nM.

Consider `Cc1c(O[C@H]2CCC[C@H](C(=O)O)C2)ccc(-c2nnn(C)c2Cn2nnc(OCC3CC3)n2)[n+]1[O-]` [Example 349, 3-{[(1S,3S)-3-carboxycyclohexyl]oxy}-6-(5-{[5-(cyclopropyl-methoxy)-2H-1,2,3,4-tetrazol-2-yl]methyl}-1-methyl-1H-1,2,3-triazol-4-yl)-2-methylpyridin-1-ium-1-olate], for which the IC50 is 304 nM.

In the case of `Cc1nc(-c2nnn(C)c2Cn2nnnc2S(C)(=O)=O)ccc1O[C@H]1CCC[C@H](C(=O)O)C1` [Example 350, (1S,3S)-3-[(6-{5-[(5-methanesul-fonyl-1H-1,2,3,4-tetrazol-1-yl)methyl]-1-methyl-1H-1,2,3-triazol-4-yl}-2-methylpyridin-3-yl)oxy]cyclohexane-1-carboxylic acid], the IC50 is 1240 nM.

Turning to `Cc1nc(-c2nnn(C)c2Cn2nnnc2OCC2CC2)ccc1O[C@H]1CCC[C@H](C(=O)O)C1` [Example 351, (1S,3S)-3-{[6-(5-{[5-(cyclopropyl-methoxy)-1H-1,2,3,4-tetrazol-1-yl]methyl}-1-methyl-1H-1,2,3-triazol-4-yl)-2-methylpyridin-3-yl]oxy}cyclohexane-1-carboxylic acid], the IC50 came to 152 nM.

With `CSc1nnnn1Cc1c(-c2ccc(O[C@H]3CCC[C@H](C(=O)O)C3)c(C)n2)nnn1C` [Example 352, (1S,3S)-3-{[2-methyl-6-(1-methyl-5-{[5-(methylsulfanyl)-1H-1,2,3,4-tetrazol-1-yl]methyl}-1H-1,2,3-triazol-4-yl)pyridin-3-yl]oxy}cyclohexane-1-carboxylic acid], the IC50 came to 580 nM.

With `CSc1nnn(Cc2c(-c3ccc(O[C@H]4CCC[C@H](C(=O)O)C4)c(C)n3)nnn2C)n1` [Example 353, (1S,3S)-3-{[2-methyl-6-(1-methyl-5-{[5-(methylsulfanyl)-2H-1,2,3,4-tetrazol-2-yl]methyl}-1H-1,2,3-triazol-4-yl)pyridin-3-yl]oxy}cyclohexane-1-carboxylic acid], the IC50 was found to be 800 nM.

On to `Cc1nc(-c2nnn(C)c2Cn2nnnc2C2CCC2)ccc1O[C@H]1CCC[C@H](C(=O)O)C1` [Example 354, (1S,3S)-3-[(6-{5-[(5-cyclobutyl-1H-1,2,3,4-tetrazol-1-yl)methyl]-1-methyl-1H-1,2,3-triazol-4-yl}-2-methylpyridin-3-yl)oxy]cyclo-hexane-1-carboxylic acid], for which the IC50 was found to be 226 nM.

Consider `Cc1nc(-c2nnn(C)c2Cn2nnc(C3CCC3)n2)ccc1O[C@H]1CCC[C@H](C(=O)O)C1` [Example 355, (1S,3S)-3-[(6-{5-[(5-cyclobutyl-2H-1,2,3,4-tetrazol-2-yl)methyl]-1-methyl-1H-1,2,3-triazol-4-yl}-2-methylpyridin-3-yl)oxy]cyclohexane-1-carboxylic acid], for which the IC50 stood at 32 nM.

Take `Cc1nc(-c2nnn(C)c2Cn2nnnc2CC2CCC2)ccc1O[C@H]1CCC[C@H](C(=O)O)C1` [Example 356, (1S,3S)-3-{[6-(5-{[5-(cyclobutyl-methyl)-1H-1,2,3,4-tetrazol-1-yl]methyl}-1-methyl-1H-1,2,3-triazol-4-yl)-2-methylpyridin-3-yl]oxy}cyclohexane-1-carboxylic acid]: the IC50 came to 146 nM.

For `Cc1nc(-c2nnn(C)c2Cn2nnnc2CCC2CC2)ccc1O[C@H]1CCC[C@H](C(=O)O)C1` [Example 357, (1S,3S)-3-{[6-(5-{[5-(2-cyclopro-pylethyl)-1H-1,2,3,4-tetrazol-1-yl]methyl}-1-methyl-1H-1,2,3-triazol-4-yl)-2-methylpyridin-3-yl]oxy}cyclohexane-1-carboxylic acid], the IC50 turned out to be 332 nM.

On to `CCCCNc1nnn(Cc2c(-c3ccc(O[C@H]4CCC[C@H](C(=O)O)C4)c(C)n3)nnn2C)n1` [Example 362, (1S,3S)-3-((6-(5-((5-(butylamino)-2H-tetrazol-2-yl)methyl)-1-methyl-1H-1,2,3-triazol-4-yl)-2-methyl-pyridin-3-yl)oxy)cyclohexane-1-carboxylic acid], for which the half-maximal inhibitory concentration (IC50) was 316 nM.

The test is the same for the next values; noted with them: read-out: hLPA1 IC50.
Take `Cc1nc(-c2nnn(C)c2Cn2nnc(N(CC3CC3)CC3CC3)n2)ccc1O[C@H]1CCC[C@H](C(=O)O)C1` [Example 358, (1S,3S)-3-((6-(5-((5-(bis(cyclo-propylmethyl)amino)-2H-tetrazol-2-yl)methyl)-1-methyl-1H-1,2,3-triazol-4-yl)-2-methylpyridin-3-yl)oxy)cyclohexane-1-carboxylic acid]: the IC50 was 949 nM.

In the case of `Cc1nc(-c2nnn(C)c2Cn2nnc(NCC3CC3)n2)ccc1O[C@H]1CCC[C@H](C(=O)O)C1` [Example 359, (1S,3S)-3-((6-(5-((5-((cyclopropylmethyl)amino)-2H-tetrazol-2-yl)methyl)-1-methyl-1H-1,2,3-triazol-4-yl)-2-methylpyridin-3-yl)oxy)cyclohexane-1-carboxylic acid], the IC50 is 428 nM.

`Cc1nc(-c2nnn(C)c2Cc2nnn(CC3CC3)n2)ccc1O[C@H]1CCC[C@H](C(=O)O)C1` [Example 360, (1S,3S)-3-((6-(5-((2-(cyclopropyl-methyl)-2H-tetrazol-5-yl)methyl)-1-methyl-1H-1,2,3-triazol-4-yl)-2-methylpyridin-3-yl)oxy)cyclo-hexane-1-carboxylic acid]: the IC50 was found to be 92 nM.

In the case of `CCCCN(C)c1nnn(Cc2c(-c3ccc(O[C@H]4CCC[C@H](C(=O)O)C4)c(C)n3)nnn2C)n1` [Example 361, (1S,3S)-3-((6-(5-((5-(butyl(methyl)amino)-2H-tetrazol-2-yl)methyl)-1-methyl-1H-1,2,3-triazol-4-yl)-2-methylpyridin-3-yl)oxy)cyclo-hexane-1-carboxylic acid], the IC50 turned out to be 228 nM.
